Source: patent US20240385182A1, “MASKED FLUOROGENIC LIPID COMPOUNDS, LIPID PARTICLES COMPRISING THE SAME, AND METHODS OF USE THEREOF” (Rutgers, The State University of New Jersey, priority 2023, published 2024)

Tests used:
HeLa cells = assay: Confocal imaging and colocalization in live HeLa cells; assay type: cell-based; conditions: for fluorescence at 405/475 nm: LNPs
Protocol: FIGS. 9A-9E: confocal imaging of lipid environments targeted by ONOO^− in live HeLa cells. Cells were seeded into glass microscope dishes, incubated with LNPs (50 μM) and stained with organelle trackers and/or actin dye prior to imaging. LNPs obtained from a 47.5:47.5:5.0 molar ratio of DOTMA, DOPE, and DPPC-TC-ONOO^−. FIG. 9A: cells treated with LNPs, stimulated with IFN-γ/LPS/PMA. Time coarse images acquired upon PMA treatment. FIG. 9B: cells treated with LNPs and 1400 W. FIG. 9C: cells treated with LNPs, then with 1400 W and IFN-γ/LPS/PMA. FIGS. 9D-9E: quantitative colocalization study of cells treated with LNPs and stimulated with IFN-γ/LPS/PMA. Pearson's correlation coefficient (PCC) was calculated for quantitative assessment. Organelle trackers: ER-Tracker™, MitoTracker™, CellLight™ Golgi-RFP, LysoTracker™. Cell cytoskeleton was assessed with CellMask™ Deep Red Actin Tracking Stain. DPPC-TC channel: 405/475 nm. Scale bars=20 μm (FIGS. 9A-9D) or 5 μm (FIG. 9E). With the utility of DPPC-TC-ONOO^− proven in synthetic protocell membranes, incorporation into live HeLa and RAW 264.7 cells was sought, which are relevant to redox-induced stress and have well-recognized pathways for RNS and ROS production. Lipid nanoparticles (LNPs) (˜100 nm in diameter) was used to deliver DPPC-TC-ONOO− into cells. This method circumvented the limited solubility of DPPC-TC-ONOO− due to the relatively hydrophobic butanone-coumarin motif. LNPs were obtained via sonication from 1,2-di-O-octadecenyl-3-trimethylammonium propane (DOTMA), 1,2-dioleoyl-sn-glycero-3-phosphoethanolamine (DOPE), and DPPC-TC-ONOO− (47.5:47.5:5.0 molar ratio), which were hydrated with a 300 mM sucrose solution. DOTMA and DOPE were chosen as the carrier lipids due to their cationic/zwitterionic natures, which has been postulated to enhance uptake through the cell membrane. The impact of different LNP compositions and incubation times on the cellular incorporation of DPPC-TC-ONOO^− was assessed. […] Specifically, LNPs containing greater than 10 mol % DPPC-TC-ONOO− were considerably more heterogenous in size (up to […] observed, in contrast to ˜100 nm) and nonuniform in vesicle lamellarity. Those with less than 4 mol % DPPC-TC-ONOO− led to insufficient fluorescence signal. To balance these counteracting factors, 5 mol % DPPC-TC-ONOO− was used, with 47.5 mol % DOTMA and DOPE, each. In these initial assays, cells were incubated with LNPs for up to 15 hours to complete the uptake and intracellular localization of DPPC-TC-ONOO−. Shorter incubation times (3-to-5 hours) led to its uptake but not subcellular localization. […] However, high serum concentration in DMEM caused interference between LNPs and serum-protein, resulting in aggregate formation as observed by microscopy. To overcome this obstacle, LNPs (50 μM) were used in a mixture of 2/3 volumetric ratio of sucrose solution and Opti-MEM™, a reduced serum medium known to increase the efficiency of lipofection. […] For a physiologically relevant stress model, the standard stimulation condition involving IFN-γ/LPS/PMA was employed. Treatment of cells with IFN-γ/LPS leads to the endogenous production of nitric oxide and PMA provokes increased levels of superoxide. These two reactive species combine to form peroxynitrite, as described elsewhere herein. […] The intracellular redox selectivity of DPPC-TC-ONOO^− was also assessed using N-(3-(aminomethyl)benzyl)-acetamidine, known as 1400 W, which inhibits the production of NO· by irreversibly binding to iNOS. […] To determine whether DPPC-TC-ONOO^− localizes and functions at a specific subcellular compartment in HeLa, a comprehensive colocalization study was performed with dyes specific for lipid-rich and membrane-enclosed organelles, including the ER, mitochondrion, Golgi apparatus, and lysosome (FIGS. 9D-9E). In addition, actin stain was used to gain a visual insight into the cytoskeletal structure of the whole cell. […]

[1] = Photophysical characterization of probes and uncaged forms (relative fluorescence quantum yield, extinction coefficient, brightness); assay type: physicochemical
Summary of the method: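 Relative fluorescence quantum yields of caged probes and uncaged forms, referenced to coumarin 343 (ΦF 0.63 in ethanol) for triazole-coumarins and fluorescein (ΦF 0.79 in ethanol) for triazole-fluoresceins. Measured in Tris 50 mM, pH 7.5; coumarin largely aryloxide (TEG-TC pKa 7.1±0.1 by UV-Vis).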

CCCCCCCCCCCCCCCC(=O)OCC(COP(=O)([O-])OCC[N+](C)(C)Cc1cn(-c2cc3ccc(OC(=O)Oc4ccc(CCC(=O)C(F)(F)F)cc4)cc3oc2=O)nn1)OC(=O)CCCCCCCCCCCCCCC (racemic) [DPPC-TC-ONOO^−]
signal in the DPPC-TC channel (HeLa cells; 1400 W only or 1400 W and IFN-γ/LPS/PMA): no observable signal
Pearson's correlation coefficient (PCC) (HeLa cells; DPPC-TC signal vs ER-Tracker Green): 0.938
fluorescence at 405/475 nm (HeLa cells; no stimulation): no observable signal
fluorescence at 405/475 nm (HeLa cells; stimulation with IFN-γ/LPS/PMA): substantial increase in fluorescence
colocalization correlation (HeLa cells; dyes specific for Golgi, mitochondria, and lysosomes): less significant correlation
time point at which intracellular fluorescence was observable upon PMA addition (HeLa cells; post IFN-γ/LPS stimulation, earliest possible image acquisition time): 3 min
Emmax [1]: 471.2 nm
Exmax [1]: 395.0 nm
Ext. Coeff. [1]: 2784 M⁻¹ cm⁻¹
